{"source": "patent EP0866684B1", "about": "“COSMETIC HAIR TREATMENT METHOD” (UNILEVER PLC, priority 1995, dated 1997)", "key": {"[1]": {"tested_on": "isolated human hair follicles", "assay": "In vitro hair follicle growth test: growth at varied cysteine concentration (Example 1)", "assay_type": "cell-based", "conditions": "concentration of cysteine + cystine (half cystine) varied in supplemented Williams E medium", "protocol": "The effect of cysteine on hair diameter was assessed using an in vitro test which uses isolated human hair follicles in a culture medium.\nHuman hair follicles were isolated from scalp skin by the methods described by Philpott et al J Cell Science 97 463-471, 1990. […] Follicles isolated in this way were cultured as described by Westgate et al Br. J. Dermatol 129 372-379, 1993 in a completely defined culture medium called Williams E medium (obtainable from ICN FLOW), the latter supplemented with antibiotics, glutamine, hydrocortisone and Insulin. In this example the concentration of cysteine + cystine (referred to as half cystine) was varied and the daily rate of growth of follicles measured."}, "[2]": {"tested_on": "isolated human hair follicles", "assay": "Incorporation of radiolabelled cysteine into hair fibre in vitro (Example 2)", "assay_type": "cell-based", "conditions": "5 hours with a range of cysteine concentrations, partly radiolabelled; 48 hours chase; liquid scintillation counting of the fibre", "protocol": "Follicles were isolated as described in Example 1 and cultured for 5 hours in the presence of a range of concentrations of cysteine, a small proportion of which was radiolabelled. After 5 hours the follicles were transferred to normal supplemented Williams E medium to \"chase\" the radioactivity into the fibre being grown in the follicle, for 48 hours. The hair fibre was isolated from each follicle using a combination of detergent and enzyme and the 'naked' fibre dissolved and subjected to liquid scintillation counting."}, "[3]": {"tested_on": "isolated human hair follicles", "assay": "Growth of follicles moved from lower to higher cysteine medium (Example 3)", "assay_type": "cell-based", "conditions": "2 days in medium with lower cysteine, then moved to medium with a higher amount of cysteine", "protocol": "Human hair follicles were isolated as described in Example 1 and placed into culture in Williams E medium formulated to contain a lower concentration of cysteine. Follicles were cultured for 2 days in this medium then transferred to medium containing a higher amount of cysteine."}, "[4]": {"tested_on": "isolated human hair follicles", "assay": "Diameter of hair fibres grown in vitro, Laser Scan Micrometer (Example 4)", "assay_type": "cell-based", "conditions": "range of cysteine concentrations, 7-11 days of culture", "protocol": "Follicles were isolated as described in Example 1 and placed into culture in supplemented Williams E medium containing a range of concentrations of cysteine. Following several days of culture(7-11), follicles were removed from the medium and the fibres isolated from the follicles as described above. The diameter of the fibres was measured using a modified Laser Scan Micrometer (Mitotoyu) coupled to a moving jig which was capable of rotating the fibre through 180° and moving the fibre through the laser beam at intervals of 0.2mm. Each isolated fibre contained a small part which was formally grown in vivo, the diameter of this \"in vivo\" end of the fibre. The diameter of the fibre grown in vitro was measured at intervals of 0.2mm along the fibre. For estimation of the effect of different media concentrations of cysteine on diameter, the average in vitro diameter was compared across the treatment concentrations of cysteine and the ratio of in vitro diameter to in vivo diameter was calculated."}, "[5]": {"tested_on": "isolated human hair follicles", "assay": "Fibre diameter after change from lower to higher cysteine concentration (Example 5)", "assay_type": "cell-based", "protocol": "Follicles were isolated as described in Example 1 and cultured as described in Example 3. Fibres were isolated and diameter measured as described in Example 4. […] The change in diameter was calculated by taking, firstly the diameter at the narrowest part of the fibre for each of the three treatments and secondly the diameter of the fibre during growth after addition of cysteine - deemed to be the in vitro diameter, and taking the ratio of these to the in vivo diameter."}, "sheep": {"tested_on": "sheep", "conditions": "cited from earlier work; for sulphur content of the \"new\" wool / wool growth: abomasal or intravenous infusion, sheep consuming roughage-based diets; for increase in fibre diameter: cysteine infusion, sheep wool"}}, "note": "Read-outs that look alike come from different tables or passages of the source.", "data": [{"smiles": "N[C@@H](CS)C(=O)O", "note": "[cysteine]", "values": [{"measurement": "daily rate of growth of follicles", "setting": "[1]", "value": "growth increases with cysteine concentration in the medium"}, {"measurement": "Incorporation of cysteine into human hair in vitro", "setting": "[2]", "value": "concentration dependent"}, {"measurement": "growth rate", "setting": "[3]", "value": "increasing their growth rate"}, {"measurement": "diameter of the fibres", "setting": "[4]", "value": "dependent on the concentration of cysteine available to the follicles"}, {"measurement": "diameter of the fibre", "setting": "[5]; after transfer to the higher concentration of cysteine (495.0µM)", "value": "increased again"}, {"measurement": "change in diameter (ratio to the in vivo diameter)", "setting": "[5]; follicles where the cysteine concentration was reversed", "value": "the fibre diameter was similarly reversed"}, {"measurement": "diameter of the fibre", "setting": "[5]; lower concentration of cysteine (9.0µM), compared with the in vivo diameter", "value": "decreased from the in vivo diameter"}, {"measurement": "sulphur content of the \"new\" wool", "setting": "sheep", "value": "increased"}, {"measurement": "wool growth", "setting": "sheep", "value": "stimulates wool growth"}, {"measurement": "increase in fibre diameter", "setting": "sheep; typical value", "value": "1-3 µm"}, {"measurement": "increase in fibre diameter", "setting": "sheep", "value": "5-10%"}]}, {"smiles": "CSCC[C@H](N)C(=O)O", "note": "[methionine, reference compound]", "values": [{"measurement": "sulphur content of the \"new\" wool", "setting": "sheep", "value": "increased"}, {"measurement": "wool growth", "setting": "sheep", "value": "stimulates wool growth"}]}]}
